Assay results published in paper PMC6270263, “Factors Influencing the Antifolate Activity of Synthetic Tea-Derived Catechins” (Molecules, 2013).

Experiments:
[1] = molecular target: T1, bovine serum albumin (BSA) (Bos taurus, UniProt P02769); experiment: BSA binding by fluorescence quenching
T1 construct: purchased Sigma-Aldrich
From the text: Upon progressive additions of various concentrations of EGCG and TMCG to BSA, the emission intensity decreases, as shown in Figure 4(a). The quenching of the fluorescence intensity of BSA implies that the catechins bind at close proximity to the tryptophan and tyrosine residues and that the molecular arrangement of BSA is affected by the interactions. […] The binding constants (KA) for the BSA-EGCG and BSA-TMCG complexes are 1.54 × 10^7 M^−1 and 1.9 × 10^5 M^−1, respectively (Table 4), and their plots are shown in Figure 4(b). […] In light of these findings, it can be reasoned that the binding affinity to BSA is higher for the galloylated catechin than for the methylated one, which emphasises that the three phenolic groups can enhance hydrogen bonding between BSA and EGCG [25].
Fluorescence measurements were made on an automatic scanning Perkin-Elmer LS50B spectrofluorometer with 1.0 cm light path cells equipped with a 150 W xenon (XBO) light source. In all experiments, the fluorescence of BSA (5 × 10^−6 M) in 50 mM phosphate buffer of pH 7.5 was followed by excitation at 280 nm. The binding affinities of EGCG and TMCG with BSA in terms of binding constants were determined using the following equation [25]: log (F0−F)/F = log KA + n log [Q](1) where KA is the binding constant, n is the number of binding sites, F0 is the fluorescence intensity of free BSA and F is the consequent fluorescence upon the addition of catechins (Q). A plot of log (F0-F)/F against log [Q] was used to determine the values of KA and n from the intercept and the slope, respectively.

[2] = molecular target: T1, bovine serum albumin (BSA); experiment: Competitive site-marker (warfarin, ibuprofen) binding to BSA; settings: for Kd: BSA, 25 °C, read-out: Binding constant (KA) (converted)
Experimental: Next, the site selective binding of both EGCG and TMCG to BSA was analyzed. The capability of serum albumins to bind to aromatic and heterocyclic compounds is largely dependent on the existence of two major binding regions, namely site-I and site-II [25]. Warfarin and ibuprofen are fluorescence probes whose primary binding sites to BSA are site-I and site-II, respectively.
To identify the binding sites of EGCG and TMCG in BSA, the displacements of warfarin and ibuprofen (known to bind at site I and site II, respectively) were followed fluorometrically. Equimolar solutions of BSA and warfarin (5 × 10^−6 M each) were mixed for 1 h and titrated with EGCG and TMCG in separate experiments. Similar solutions containing equimolar ibuprofen and BSA were prepared and separately titrated with EGCG and TMCG to identify the binding sites of EGCG and TMCG with BSA. Titration was followed fluorometrically using an excitation wavelength of 280 nm.

SK-MEL-28 melanoma cells = experiment: Apoptosis assay (cell death detection ELISA) with or without site markers; type: cell-based, human; settings: SK-MEL-28, warfarin 10 µM
From the text: Serum is commonly used as a supplement in cell culture media. It supports cell growth and product formation by providing a broad spectrum of macromolecules, attachment factors, nutrients, and hormone and growth factors. The most commonly used animal serum supplement is foetal bovine serum, FBS (alternatively called foetal calf serum—FCS). Because BSA is a major component of FBS, the in vitro activity of catechins on tumour cells might be affected by their interaction with BSA. The effect of albumin binding on the biological activity of polyphenols is unclear. Does the bound ligand have some biological activity or does the polyphenol have to be in the free form to be active? To answer this question and to determine whether BSA-catechin interactions increase or decrease catechin anti-tumour activity, the proapoptotic activity of TMCG on SK-MEL-28 melanoma cells was probed in the presence of warfarin or ibuprofen [Figure 5(b)]. […] Because the binding of catechins to BSA seems to control drug availability, the lower affinity of TMCG and TMECG for serum albumins, with respect to natural tea catechins, might contribute to the high in vivo anti-tumour activity of these methylated synthetic catechins. […]
The human melanoma cell line SK-MEL-28 was obtained from American Type Culture Collection (ATCC, Manassas, VA, USA) and was maintained in Eagles’s Minimum Essential Medium (EMEM) supplemented with 10% (v/v) FBS and antibiotics at 37 °C in a humidified atmosphere containing 7.5% CO2. Cell viability was evaluated using the MTT cell proliferation assay. Cells were evaluated for apoptosis using a cell death detection ELISA (Cell Death Detection ELISAPLUS, Roche Diagnostics, Barcelona, Spain). […] The amount of nucleosomes is photometrically quantified at 405 nm by the peroxidase activity retained in the immunocomplexes. Apoptosis was defined as the specific enrichment of mono- and oligonucleosomes in the cytoplasm and was calculated by dividing the absorbance of treated samples with the absorbance of untreated samples after correcting for the number of cells. […]

T1 sequence (P02769 25-607): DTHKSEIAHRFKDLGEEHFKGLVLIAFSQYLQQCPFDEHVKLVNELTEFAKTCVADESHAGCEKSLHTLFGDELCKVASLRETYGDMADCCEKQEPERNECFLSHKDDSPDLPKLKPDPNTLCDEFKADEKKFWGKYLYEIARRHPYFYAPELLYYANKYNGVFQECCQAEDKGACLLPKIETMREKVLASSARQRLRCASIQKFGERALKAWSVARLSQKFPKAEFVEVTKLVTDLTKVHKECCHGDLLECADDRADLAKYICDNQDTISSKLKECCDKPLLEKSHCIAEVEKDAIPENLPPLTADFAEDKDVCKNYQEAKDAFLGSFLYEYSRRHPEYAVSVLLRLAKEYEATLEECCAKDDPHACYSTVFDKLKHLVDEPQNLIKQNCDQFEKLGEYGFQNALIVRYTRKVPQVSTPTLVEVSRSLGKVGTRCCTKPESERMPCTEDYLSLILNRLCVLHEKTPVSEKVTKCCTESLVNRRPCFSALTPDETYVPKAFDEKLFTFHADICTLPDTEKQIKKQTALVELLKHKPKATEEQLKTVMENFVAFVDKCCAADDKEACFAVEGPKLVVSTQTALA

- Kd ([1]; 25 °C, pH 7.5, no site marker, read-out: Binding constant (KA) for BSA-catechin complex (converted)): 5.26 µM
- Number of binding sites n ([1]; catechin-BSA complex, double logarithmic plot): approximately 1
- Kd ([2]; site marker: Blank): 5.26 µM
- Kd ([2]; site marker: Ibuprofen): 9.09 µM
- Kd ([2]; site marker: Warfarin): 20 µM
- Site selective binding to BSA ([2]; competition with warfarin (site-I) and ibuprofen (site-II)): higher specificity for site-I
SMILES: COc1cc(C(=O)O[C@H]2Cc3c(O)cc(O)cc3O[C@@H]2c2ccc(O)c(O)c2)cc(OC)c1OC [TMCG]
- Proapoptotic activity of TMCG in the presence of warfarin (SK-MEL-28 melanoma cells): significantly increased
